What was measured:
[1] = Toxicity against Artemia salina L EACH; assay type: organism-based; conditions: in vivo
Gambusia affinis = assay: Toxicity in Gambusia affinis upto 100 ug/mL by lethality assay; assay type: organism-based; conditions: in vivo

With `CC(C)CCC[C@@H](C)COS(=O)(=O)[O-].[Na+]` the LC50 [1] was 17.8 µg/mL and the Activity (Gambusia affinis) was “Non-toxic”.

Reference: ChEMBL document CHEMBL1145704, “Absolute Configuration of 2,6-Dimethylheptyl Sulfate and Its Distribution in Ascidiacea” (J Nat Prod, 1997)
